From US9701690B2, “Myrtocomuloacetalone 1 as an anti-inflammatory agent” (priority 2014, dated 2017)
≈ marks a conversion by molar mass, not a printed value. Read-outs that look alike come from different tables or passages of the source.

How the values were obtained:
superoxide (O−2) = assay: Oxidative burst, superoxide production; assay type: cell-based; conditions: for Oxidative burst % Inhibition O−2: 25 μg/Ml
ROS (HOCl) = assay: Oxidative burst, ROS (HOCl) production (zymosan induced); assay type: cell-based
T-cells = assay: T-cell proliferation; assay type: cell-based
Text: T Lymphocytes, the major key detector cells of the adaptive immune responses, differ entirely from those of innate immunity that includes free a radical generation system. However, the effector pathways overlap to a great extent. Therefore, they can play a leading role in the development of autoimmune disease related to oxidative stress.

CC1 liver cells = assay: MTT assay, CC1 liver cell proliferation; assay type: cell-based, Wistar rat; conditions: 48 hours
Method: FIG. 6 depicts the effect of myrtocomuloacetalone 1 on Wistar rat CC1 liver cell proliferation by MTT assay. CC1 liver cellline was incubated in the presence of three concentrations 25, 5 and 0.5 μg/mL of test compounds or without addition of compounds (−ve control) and in the presence of cytotoxic drug cyclohexamide (+ control).
(§1) The effect of myrtocomuloacetalone 1 on cell viability was determined in MDBK, CC1, J774 and 3T3 Fibrobast cells and the IC50 for each line was calculated.

MDBK kidney cells = assay: MTT assay, MDBK kidney cell proliferation; assay type: cell-based; conditions: 48 hours
Method: FIG. 5 depicts the effect of myrtocomuloacetalone 1 on MDBK kidney cell proliferation by MTT assay. MDBK Kidney cell line was incubated in the presence of three concentrations 25, 5 and 0.5 μg/mL of test compounds or without addition of compounds (− test control) and in presence of cytotoxic drug cyclohexamide (+ control).
as §1

[1] = tested on: 3T3 mouse fibroblast cells; assay: MTT assay, 3T3 fibroblast cell proliferation; assay type: cell-based; conditions: 48 hours
Method: FIG. 7 depicts the effect of myrtocomuloacetalone 1 on 3T3 mouse fibrobast cell proliferation by MTT assay. Fibrobast cell line was incubated in the presence of three concentrations (25, 5 and 0.5 μg/mL) of test compounds or without addition of compounds (−ye control) and in presence of cytotoxic drug cyclohexamide (+ control).
as §1

[2] = tested on: basal Nitric Oxide, U138MG cells; assay: Basal level of Nitric Oxide in neuronal cells (griess reagent); assay type: cell-based; conditions: 48 hours
Method: FIG. 1 depicts the effect of myrtocomuloacetalone 1 on basal level of Nitric Oxide neuronal cells. U138MG cells were incubated in presence and absence of compound for 48 hours and supernatant was analyzed for the level of the presence of nitrite by griess reagent.
Under normal physiological conditions, Nitric Oxide is necessary for normal vascular function because of its effect as a neurotransmitter. This kind of Nitric Oxide is called a basal level of Nitric Oxide, which is released by neuronal and endothelial synthases (Hattori, Kasai, and Gross 2004). The test compound […] in the basal level of Nitric Oxide released by the neuronal cell (FIG. 1).

H2O2 = assay: Oxidative burst, hydrogen peroxide production; assay type: cell-based
[3] = tested on: NF kappa B p65 in J774 cells; assay: LPS induced nuclear translocation of p65 subunit of NF kappa B; assay type: cell-based, mouse
Method: FIG. 3 depicts the LPS induced nuclear translocation of p65 subunit of NF kappa B in J774 cells. Effect of myrtocomuloacetalone 1 at concentration 25 μg/mL. Arrows show no transcription factor inside nucleus at 25 μg/mL, whereas 5, 0.5 μg/mL has no effect on nuclear factor translocation as compared to positive control. The cells were examined at 20× magnification under TRITC and DAPI channel using a Nikon TE-2000 epifluorescence microscope. Merging was done using Adobe Photoshop.

J774.2 macrophages = assay: MTT assay, J774.2 macrophage cell proliferation; assay type: cell-based, mouse; conditions: 48 hours
Method: FIG. 8 depicts the effect of myrtocomuloacetalone 1 on J774.2 mouse macrophage cell proliferation by MIT assay. Macrophage cell line was incubated in the presence of three concentrations (25, 5 and 0.5 μg/mL) of test compounds or without addition of compounds (−ve control).
as §1

[4] = tested on: intracellular ROS in J774.2 cells; assay: Intracellular oxidative stress, DCFH dye, fluorescent microscopy; assay type: cell-based, mouse; conditions: PMA stimulant
Text: FIG. 4 depicts the intracellular oxidative stress examined by fluorescent microscopy. Mouse macrophage J774.2 cells, treated with phorbol myristate acetate (PMA) alone: positive control or in combination with compound. The cells were examined at 20× magnification under a green channel. Bright field images showing the total number of cells present in the same field were obtained under phase contrast at 20× magnification. Each image is representative of 3 individual experiments.
In order to validate the above mentioned results, we also investigated the effect of compound on intracellular ROS levels by using 2′,7′-dichlorfluorescein (DCFH) dye, which mainly measures the H2O2 released into the intracellular environment. We employed PMA as a stimulant since PMA is known to activate the NADPH oxidase via protein kinase C pathway.

[5] = tested on: Nitric Oxide release by J774.2 macrophages; assay: LPS-induced inflammatory Nitric Oxide release by macrophages (griess reagent); assay type: cell-based, mouse; conditions: J774.2, LPS, 48 hours
Method: FIG. 2 depicts the effect of myrtocomuloacetalone 1 on inflammatory Nitric Oxide release by macrophages in response to LPS, macrophages. J774.2 cells were incubated in the presence or absence of compound for 48 hours and supernatant was detected for the presence of nitrite by griess reagent. The result was compared with known inhibitor of Nitric Oxide; LNMA (NG Monomethyl L arginine).
During inflammation, the inducible form of nitric oxide synthase gets activated and causes the robust generation of Nitric Oxide that causes excessive vasodilation which results in hypotension and septic shock. In contrast, Nitric Oxide combined with superoxide (ROS generated during phagocytosis) leads to ONOO generation and eventually reduces the bioavailability of basal Nitric Oxide and therefore normal function of neurotransition will be halted. This effect mainly leads to vasoconstriction, hypertension and atherosclerosis. Current studies reveal that the compound is an inhibitor to the inflammatory Nitric Oxide released by the activated macrophages in cell culture supernatant. It is found to be a highly significant inhibitor Nitric Oxide with an IC50 value of <1 μg/mL (see FIG. 2).

p38 = assay: LPS activated transcription factor p38; assay type: cell-based

## c1ccc([I+]c2ccccc2)cc1 [Diphenyliodonium, reference compound]
Superoxide (O−2)
  Oxidative burst % Inhibition O−2: 95%

## CC(C)Cc1ccc(C(C)C(=O)O)cc1 (stereo not shown) [Ibuprofen, reference compound]
ROS (HOCl); oxidative burst
  IC50: 11.7 ± 1.8 µg/mL (≈ 56.7 µM)

## C[C@]12C=CC(=O)C=C1CC[C@@H]1[C@@H]2[C@@H](O)C[C@@]2(C)[C@H]1CC[C@]2(O)C(=O)CO [Prednisolone, reference compound]
T-cells; T-cell
  IC50: < 0.625 µg/mL

## C[C@@H]1C[C@@H]([C@H](O)CC2CC(=O)NC(=O)C2)C(=O)[C@@H](C)C1 [cycoxehamide, reference compound]
CC1 liver cells
  Cell viability IC50, CC1 liver cells: 0.02 ± 0.001 µg/mL
MDBK kidney cells
  Cell viability IC50, MDBK kidney cells: 1.2 ± 0.4 µg/mL
[1]
  Cell viability IC50, 3T3 mouse fibroblasts: 0.13 µg/mL

## myrtocomuloacetalone 1 [Myrtocomuloacetalone (1)]
CC1 liver cells
  Cell viability IC50, CC1 liver cells: 4.6 ± 0.7 µg/mL
[2]
  Effect on basal level of Nitric Oxide released by neuronal cell: does change
T-cells
  T-Cell proliferation (IC50): <0.5 µg/mL
T-cells; listed as myrtocomuloacetalone 1
  T-Cell proliferation (IC50): < 0.5 µg/mL
H2O2; 25 μg/Ml
  Oxidative burst % Inhibition H2O2: 53%
H2O2; oxidative burst
  Effect on hydrogen peroxide production: profound effect
MDBK kidney cells
  Cell viability IC50, MDBK kidney cells: 4.5 ± 1.1 µg/mL
[3]; 25 μg/mL
  Nuclear translocation of NF κB: completely inhibits
[3]; 5, 0.5 μg/mL
  Nuclear translocation of NF κB: no effect
J774.2 macrophages
  Cell viability IC50, J774.2 macrophages: 5 ± 0.8 µg/mL
[4]
  PMA induced intracellular ROS generation: inhibitory effects
ROS (HOCl); oxidative burst
  Effect on HOCl production: no effect
  ROS (HOCl) (IC50): >100 µg/mL
ROS (HOCl); zymosan induced
  Zymosan induced ROS production of mainly HOCl: not
Superoxide (O−2)
  Oxidative burst % Inhibition O−2: 42.5%
Superoxide (O−2); oxidative burst
  Effect on superoxide production: profound effect
[5]
  Inhibition of inflammatory Nitric Oxide released by activated macrophages, IC50: < 1 µg/mL
p38
  Effect on transcription factor p38 activated by LPS: remain unaffected
[1]
  Cell viability IC50, 3T3 mouse fibroblasts: 6.53 ± 1.2 µg/mL
